Measured values: patent US6489268B1, “Highly selective herbicidal phenoxypropionic acid alkoxycarbonyl anilid compounds and method of preparing the same” (Dongbu Hannong Chemical Co., Ltd., priority 1999, dated 2002)

Tests used:
Experiment in all cases: Leaf treatment test (post-emergence spray, % damage)
Assay type in all cases: in vivo
Details in all cases: 14 days after treatment, vs untreated control
[1] = test system: Oryza sativa L. cv. Dongjin (Rice, ORYSA)
Method: (§1) Seeds of rice, wheat, barley, corn, cotton, barnyard grass, common sorgum, large crabgrass and fall panicum were seeded at a pot with a surface area of 600 cm. When barnyard grass kept at 20˜30° C. had three leaves, wettable powders prepared by mixing 1 weight part of the active compound, 5 weight part of acetone and 1 weight part of emulsifier and diluting with water was applied directly on the leaves in 2000 l per hectare. The concentration of the spray liquid was so chosen the particular amounts of the active compound desired. 14 days after the treatment, the degree of damage to the plants was rated in % damage in comparison to the development of untreated control. 0% no action (like untreated control) 20% slight effect 70% herbicidal effect 100% total destruction [table]

[2] = test system: Echinochloa crus-galli Beauv. var. caudata Kitagawa (Barnyard grass, ECHCG)
Method: as §1

[3] = test system: Panicum dichotomiflorum Michx (Fall panicum, PANDI)
Method: as §1

[4] = test system: Gossypium (Cotton, GOSHI)
Method: as §1

[5] = test system: Glydne max (L.) MERR (Soy bean, GLXMA)
Method: [The procedure below names another organism; the source lists this organism under the same test.] as §1

[6] = test system: Andropogon sorghum (Common sorgum, SORBI)
Method: as §1

[7] = test system: Digitaria Sanguinalis (L.) SCOP (Large crabgrass, DIGSA)
Method: as §1

[8] = test system: Zea mays L. (Corn, ZEAMX)
Method: as §1

[9] = test system: Triticum aestivum L. (Wheat, TRZAW)
Method: as §1

## COC(=O)c1cccc(NC(=O)C(C)Oc2ccc(Oc3nc4ccc(Cl)cc4o3)cc2)c1 (stereo not drawn) [Compound 1]
[1]; 15 g/ha
  degree of damage to the plants, ORYSA: 0%
[1]; 30 g/ha
  degree of damage to the plants, ORYSA: 0%
[1]; 60 g/ha
  degree of damage to the plants, ORYSA: 0%
[1]; 125 g/ha
  degree of damage to the plants, ORYSA: 0%
[1]; 250 g/ha
  degree of damage to the plants, ORYSA: 10%
[1]; 500 g/ha
  degree of damage to the plants, ORYSA: 20%
[1]; 1000 g/ha
  degree of damage to the plants, ORYSA: 30%
[2]; 15 g/ha
  degree of damage to the plants, ECHCG: 0%
[2]; 30 g/ha
  degree of damage to the plants, ECHCG: 80%
[2]; 60 g/ha
  degree of damage to the plants, ECHCG: 100%
[2]; 125 g/ha
  degree of damage to the plants, ECHCG: 100%
[2]; 250 g/ha
  degree of damage to the plants, ECHCG: 100%
[2]; 500 g/ha
  degree of damage to the plants, ECHCG: 100%
[2]; 1000 g/ha
  degree of damage to the plants, ECHCG: 100%

## CCOC(=O)c1cccc(NC(=O)C(C)Oc2ccc(Oc3nc4ccc(Cl)cc4o3)cc2)c1 (stereo not drawn) [Compound 2]
[3]; 0.004 kg/ha
  degree of damage to the plants, PANDI: 95%
[3]; 0.016 kg/ha
  degree of damage to the plants, PANDI: 100%
[3]; 0.063 kg/ha
  degree of damage to the plants, PANDI: 100%
[3]; 1 kg/ha
  degree of damage to the plants, PANDI: 100%
[3]; 025 kg/ha
  degree of damage to the plants, PANDI: 100%
[4]; 0.004 kg/ha
  degree of damage to the plants, GOSHI: 0%
[4]; 0.016 kg/ha
  degree of damage to the plants, GOSHI: 0%
[4]; 0.063 kg/ha
  degree of damage to the plants, GOSHI: 0%
[4]; 1 kg/ha
  degree of damage to the plants, GOSHI: 0%
[4]; 025 kg/ha
  degree of damage to the plants, GOSHI: 0%
[5]; 0.004 kg/ha
  degree of damage to the plants, GLXMA: 0%
[5]; 0.016 kg/ha
  degree of damage to the plants, GLXMA: 0%
[5]; 0.063 kg/ha
  degree of damage to the plants, GLXMA: 0%
[5]; 1 kg/ha
  degree of damage to the plants, GLXMA: 0%
[5]; 025 kg/ha
  degree of damage to the plants, GLXMA: 0%
[6]; 0.004 kg/ha
  degree of damage to the plants, SORBI: 40%
[6]; 0.016 kg/ha
  degree of damage to the plants, SORBI: 100%
[6]; 0.063 kg/ha
  degree of damage to the plants, SORBI: 100%
[6]; 1 kg/ha
  degree of damage to the plants, SORBI: 100%
[6]; 025 kg/ha
  degree of damage to the plants, SORBI: 100%
[7]; 0.004 kg/ha
  degree of damage to the plants, DIGSA: 95%
[7]; 0.016 kg/ha
  degree of damage to the plants, DIGSA: 100%
[7]; 0.063 kg/ha
  degree of damage to the plants, DIGSA: 100%
[7]; 1 kg/ha
  degree of damage to the plants, DIGSA: 100%
[7]; 025 kg/ha
  degree of damage to the plants, DIGSA: 100%
[1]; 0.004 kg/ha
  degree of damage to the plants, ORYSA: 0%
[1]; 0.016 kg/ha
  degree of damage to the plants, ORYSA: 0%
[1]; 0.063 kg/ha
  degree of damage to the plants, ORYSA: 0%
[1]; 1 kg/ha
  degree of damage to the plants, ORYSA: 40%
[1]; 15 g/ha
  degree of damage to the plants, ORYSA: 0%
[1]; 025 kg/ha
  degree of damage to the plants, ORYSA: 40%
[1]; 30 g/ha
  degree of damage to the plants, ORYSA: 0%
[1]; 60 g/ha
  degree of damage to the plants, ORYSA: 0%
[1]; 125 g/ha
  degree of damage to the plants, ORYSA: 0%
[1]; 250 g/ha
  degree of damage to the plants, ORYSA: 15%
[1]; 500 g/ha
  degree of damage to the plants, ORYSA: 35%
[1]; 1000 g/ha
  degree of damage to the plants, ORYSA: 45%
[8]; 0.004 kg/ha
  degree of damage to the plants, ZEMAX: 0%
[8]; 0.016 kg/ha
  degree of damage to the plants, ZEMAX: 0%
[8]; 0.063 kg/ha
  degree of damage to the plants, ZEMAX: 20%
[8]; 1 kg/ha
  degree of damage to the plants, ZEMAX: 100%
[8]; 025 kg/ha
  degree of damage to the plants, ZEMAX: 100%
[9]; 0.004 kg/ha
  degree of damage to the plants, TRZAW: 0%
[9]; 0.016 kg/ha
  degree of damage to the plants, TRZAW: 0%
[9]; 0.063 kg/ha
  degree of damage to the plants, TRZAW: 0%
[9]; 1 kg/ha
  degree of damage to the plants, TRZAW: 40%
[9]; 025 kg/ha
  degree of damage to the plants, TRZAW: 20%
[2]; 0.004 kg/ha
  degree of damage to the plants, ECHCG: 90%
[2]; 0.016 kg/ha
  degree of damage to the plants, ECHCG: 100%
[2]; 0.063 kg/ha
  degree of damage to the plants, ECHCG: 100%
[2]; 1 kg/ha
  degree of damage to the plants, ECHCG: 100%
[2]; 15 g/ha
  degree of damage to the plants, ECHCG: 8%
[2]; 025 kg/ha
  degree of damage to the plants, ECHCG: 100%
[2]; 30 g/ha
  degree of damage to the plants, ECHCG: 100%
[2]; 60 g/ha
  degree of damage to the plants, ECHCG: 100%
[2]; 125 g/ha
  degree of damage to the plants, ECHCG: 100%
[2]; 250 g/ha
  degree of damage to the plants, ECHCG: 100%
[2]; 500 g/ha
  degree of damage to the plants, ECHCG: 100%
[2]; 1000 g/ha
  degree of damage to the plants, ECHCG: 100%

## CCOC(=O)c1cccc(N(C)C(=O)C(C)Oc2ccc(Oc3nc4ccc(Cl)cc4o3)cc2)c1 (stereo not drawn) [Compound 3]
[1]; 15 g/ha
  degree of damage to the plants, ORYSA: 0%
[1]; 30 g/ha
  degree of damage to the plants, ORYSA: 0%
[1]; 60 g/ha
  degree of damage to the plants, ORYSA: 0%
[1]; 125 g/ha
  degree of damage to the plants, ORYSA: 0%
[1]; 250 g/ha
  degree of damage to the plants, ORYSA: 0%
[1]; 500 g/ha
  degree of damage to the plants, ORYSA: 0%
[1]; 1000 g/ha
  degree of damage to the plants, ORYSA: 0%
[2]; 15 g/ha
  degree of damage to the plants, ECHCG: 0%
[2]; 30 g/ha
  degree of damage to the plants, ECHCG: 0%
[2]; 60 g/ha
  degree of damage to the plants, ECHCG: 20%
[2]; 125 g/ha
  degree of damage to the plants, ECHCG: 90%
[2]; 250 g/ha
  degree of damage to the plants, ECHCG: 100%
[2]; 500 g/ha
  degree of damage to the plants, ECHCG: 100%
[2]; 1000 g/ha
  degree of damage to the plants, ECHCG: 100%

## COC(=O)c1ccc(NC(=O)C(C)Oc2ccc(Oc3nc4ccc(Cl)cc4o3)cc2)cc1 (stereo not drawn) [Compound 4]
[3]; 0.025 kg/ha
  degree of damage to the plants, PANDI: 80%
[3]; 0.1 kg/ha
  degree of damage to the plants, PANDI: 100%
[4]; 0.025 kg/ha
  degree of damage to the plants, GOSHI: 0%
[4]; 0.1 kg/ha
  degree of damage to the plants, GOSHI: 0%
[5]; 0.025 kg/ha
  degree of damage to the plants, GLXMA: 0%
[5]; 0.1 kg/ha
  degree of damage to the plants, GLXMA: 0%
[6]; 0.025 kg/ha
  degree of damage to the plants, SORBI: 70%
[6]; 0.1 kg/ha
  degree of damage to the plants, SORBI: 100%
[7]; 0.025 kg/ha
  degree of damage to the plants, DIGSA: 100%
[7]; 0.1 kg/ha
  degree of damage to the plants, DIGSA: 100%
[1]; 0.025 kg/ha
  degree of damage to the plants, ORYSA: 0%
[1]; 0.1 kg/ha
  degree of damage to the plants, ORYSA: 30%
[8]; 0.025 kg/ha
  degree of damage to the plants, ZEAMX: 0%
[8]; 0.1 kg/ha
  degree of damage to the plants, ZEAMX: 0%
[9]; 0.025 kg/ha
  degree of damage to the plants, TRZAW: 0%
[9]; 0.1 kg/ha
  degree of damage to the plants, TRZAW: 0%
[2]; 0.025 kg/ha
  degree of damage to the plants, ECHCG: 100%
[2]; 0.1 kg/ha
  degree of damage to the plants, ECHCG: 100%

## CCOC(=O)c1ccc(NC(=O)C(C)Oc2ccc(Oc3nc4ccc(Cl)cc4o3)cc2)cc1 (stereo not drawn) [Compound 5]
[3]; 0.025 kg/ha
  degree of damage to the plants, PANDI: 95%
[3]; 0.1 kg/ha
  degree of damage to the plants, PANDI: 100%
[4]; 0.025 kg/ha
  degree of damage to the plants, GOSHI: 0%
[4]; 0.1 kg/ha
  degree of damage to the plants, GOSHI: 0%
[5]; 0.025 kg/ha
  degree of damage to the plants, GLXMA: 0%
[5]; 0.1 kg/ha
  degree of damage to the plants, GLXMA: 20%
[6]; 0.025 kg/ha
  degree of damage to the plants, SORBI: 95%
[6]; 0.1 kg/ha
  degree of damage to the plants, SORBI: 100%
[7]; 0.025 kg/ha
  degree of damage to the plants, DIGSA: 100%
[7]; 0.1 kg/ha
  degree of damage to the plants, DIGSA: 100%
[1]; 0.025 kg/ha
  degree of damage to the plants, ORYSA: 0%
[1]; 0.1 kg/ha
  degree of damage to the plants, ORYSA: 40%
[8]; 0.025 kg/ha
  degree of damage to the plants, ZEAMX: 0%
[8]; 0.1 kg/ha
  degree of damage to the plants, ZEAMX: 30%
[9]; 0.025 kg/ha
  degree of damage to the plants, TRZAW: 0%
[9]; 0.1 kg/ha
  degree of damage to the plants, TRZAW: 20%
[2]; 0.025 kg/ha
  degree of damage to the plants, ECHCG: 95%
[2]; 0.1 kg/ha
  degree of damage to the plants, ECHCG: 100%
